What was measured:
Rat KMO = molecular target: T1, Rat KMO (Rattus norvegicus, UniProt O88867); assay: Rat KMO enzyme (cell-free) assay, NADPH consumption by absorbance; assay type: biochemical
T1 construct: The GST-tagged full-length KMO (1-478) baculovirus vector contained a thrombin cleavage site; GST (thrombin cleavage site between GST and KMO) (N, cleaved yes); made in house; host or cells: Spodoptera frugiperda (Sf9), baculovirus
Procedure: (§1) Human KMO was purchased from Origene and used to assay compounds. Full-length Rat-KMO purified for crystallisation was used to assay compounds. Full-length Rat-KMO-expressing membranes were used for mutant assays (Fig. 4b) only. […] Images were taken using Odyssey CLX (LI-COR Biosciences) and quantified using ImageStudio2.0 (LI-COR Biosciences) software.
(§2) Test compounds were dissolved in DMSO and diluted with assay buffer containing 50 mM HEPES, 2 mM MgCl2, 0.5 mM EGTA, 1 mM DTT, 0.05% Tween20 and 0.005% of antiform SI (pH = about 7.9) to prepare a 4% DMSO solution. […] After 5 min of pre-incubation, reactions were started by adding 10 μL of substrate solution containing 2.4 mM kynurenine and 0.6 mM NADPH. Reactions were run for 90 min at 30 °C, then terminated by adding 5 μL of stop buffer (40 mM maleimide, 2 mM WST-9 and 0.1 mM 1-methoky PMS in water). […] Liposomal assays were performed in the same manner except that the composition of the assay buffer was changed (phosphate-buffered saline, 2 mM MgCl2, 1 mM DTT, 0.05% Tween 20).
(§3) Compound assays were analysed and plotted on graphs using Prism (GraphPad Software Inc. San Diego, CA, USA).

hKMO = molecular target: T2, hKMO (Homo sapiens, UniProt O15229); assay: Human KMO enzyme (cell-free) assay, NADPH consumption by absorbance; assay type: biochemical
T2 construct: purchased Origene
Procedure: as §1, §2, §3

[1] = molecular target: T3, HEK293 cells stably expressing rat KMO (Rattus norvegicus, UniProt O88867); assay: Cell-based rat KMO inhibition assay (LC/MS of 3-hydroxykynurenine)
T3 construct: expressed in transfected cells
Procedure: (§4) HEK293 cells stably expressing human or rat KMO were maintained in DMEM containing 10% fetal bovine serum, 50 units/mL penicillin, 50 μg/mL streptomycin and 0.2 mg⁄mL zeocine. […] After 2 overnights, the medium was replaced with 10 μL/well of assay buffer (1 × HBSS containing 20 mM HEPES). Ten microliters per well of the diluted test compounds (final, 0–30 μM, 0.3% DMSO) were added to the respective wells. After ~30 min of pre-incubation at 37 °C, reactions were started by adding 20 μL of substrate solution containing 0.2 mM kynurenine. Reactions were run for 2 h at 37 °C, the assay buffer was discarded and the plate was immediately frozen and stored at −30 °C until LC/MS analysis.
(§5) An 80 µL volume of cold acetonitrile with 2% formic acid was added to the cell pellet in a 384-well plate and centrifuged at 3000 rpm for 10 min at 4 °C. A 40 µL volume of the supernatant was transferred to a new 384-well plate and evaporated to dryness under nitrogen gas at 45 °C. The residue was reconstituted in 100 µL of acetonitrile/water (10:90, v/v) with 0.1% formic acid, and 1 µL was injected into the LC-MS/MS system.
(§6) LC/MS/MS was performed on a Shimadzu UFLC Nexera X2 (Shimadzu Corporation, Japan) and an QTRAP® 5500 LC-MS/MS System (SCIEX, Framingham, USA). Chromatographic separation was performed using an Allure PFP Propyl analytical column (5 µm, 2.1 × 100 mm) maintained at 50 °C. The autosampler temperature was set at 15 °C. The mobile phase consisted of formic acid/water/acetonitrile/methanol (0.5/500/250/250, v/v/v/v) and the flow rate was set at 0.3 mL/min. 3-hydroxykynurenine was eluted from the LC column at a retention time of 1.2 min. The MS system was operated using electrospray ionization (ESI) in positive mode. The optimum conditions were curtain gas, 20 psi; ion spray voltage, 5500 V; heated nebulizer temperature (TEM), 700 °C; nebulizing gas (GS1), 70 psi; and heater gas (GS2), 70 psi. […] Analyst® software (SCIEX, Framingham, USA) was used for system control and MultiQuant™ Software (SCIEX, Framingham, USA) was used for data analysis.
as §3

[2] = molecular target: T4, HEK293 cells stably expressing human KMO (Homo sapiens, UniProt O15229); assay: Cell-based human KMO inhibition assay (LC/MS of 3-hydroxykynurenine)
T4 construct: expressed in transfected cells
Procedure: as §4, §5, §6, §3

T1 sequence (O88867 whole entry): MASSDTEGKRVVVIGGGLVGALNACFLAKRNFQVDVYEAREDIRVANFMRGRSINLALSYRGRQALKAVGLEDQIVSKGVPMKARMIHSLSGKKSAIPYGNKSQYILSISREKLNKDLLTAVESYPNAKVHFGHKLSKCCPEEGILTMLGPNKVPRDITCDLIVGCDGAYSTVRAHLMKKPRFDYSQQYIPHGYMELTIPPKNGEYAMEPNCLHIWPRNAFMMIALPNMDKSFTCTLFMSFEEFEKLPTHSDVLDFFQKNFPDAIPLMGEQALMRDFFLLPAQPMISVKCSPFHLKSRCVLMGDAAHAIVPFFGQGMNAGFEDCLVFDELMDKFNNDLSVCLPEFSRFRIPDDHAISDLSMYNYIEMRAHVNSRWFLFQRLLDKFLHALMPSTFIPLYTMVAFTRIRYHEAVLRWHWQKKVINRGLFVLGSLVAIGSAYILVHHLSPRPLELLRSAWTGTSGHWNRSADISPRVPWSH
T3 sequence (O88867 whole entry): as above
T2 sequence (O15229 whole entry): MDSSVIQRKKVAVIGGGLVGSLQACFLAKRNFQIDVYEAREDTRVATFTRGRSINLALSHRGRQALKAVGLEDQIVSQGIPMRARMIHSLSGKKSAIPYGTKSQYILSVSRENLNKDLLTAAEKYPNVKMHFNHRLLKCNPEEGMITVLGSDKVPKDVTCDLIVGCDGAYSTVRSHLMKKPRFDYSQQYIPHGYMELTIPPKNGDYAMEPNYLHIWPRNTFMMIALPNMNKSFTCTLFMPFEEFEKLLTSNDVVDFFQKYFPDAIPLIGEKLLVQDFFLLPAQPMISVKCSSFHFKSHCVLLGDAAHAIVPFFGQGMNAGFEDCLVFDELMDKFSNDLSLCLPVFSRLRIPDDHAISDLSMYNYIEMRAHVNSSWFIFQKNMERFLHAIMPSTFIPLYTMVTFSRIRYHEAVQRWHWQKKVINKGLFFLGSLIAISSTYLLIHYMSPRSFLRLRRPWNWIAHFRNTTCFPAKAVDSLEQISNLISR
T4 sequence (O15229 whole entry): as above

## Cc1cnn(-c2ccc(OCc3ccccc3)c(C(=O)O)c2)c1-c1ccc(Cl)c(F)c1 [Compound 3]
Rat KMO; cell-free enzyme assay, high kynurenine
  IC50: 9 nM
Rat KMO; conc 0.0003 μM, duplicates
  inhibition rate, Rat-KMO cell-free assay (Figure 1B source data): 0.623%
Rat KMO; conc 0.0003 μM, duplicates, read-out: inhibition rate, Rat-KMO cell-free assay (Figure 1B source data)
  inhibition at 0.0003 µM: 0.676%
Rat KMO; conc 0.001 μM, duplicates
  inhibition rate, Rat-KMO cell-free assay (Figure 1B source data): 5.077%
Rat KMO; conc 0.001 μM, duplicates, read-out: inhibition rate, Rat-KMO cell-free assay (Figure 1B source data)
  inhibition at 0.001 µM: 6.43%
Rat KMO; conc 0.003 μM, duplicates
  inhibition rate, Rat-KMO cell-free assay (Figure 1B source data): 23.289%
Rat KMO; conc 0.003 μM, duplicates, read-out: inhibition rate, Rat-KMO cell-free assay (Figure 1B source data)
  inhibition at 0.003 µM: 23.8%
Rat KMO; conc 0.01 μM, duplicates
  inhibition rate, Rat-KMO cell-free assay (Figure 1B source data): 55.764%
Rat KMO; conc 0.01 μM, duplicates, read-out: inhibition rate, Rat-KMO cell-free assay (Figure 1B source data)
  inhibition at 0.01 µM: 56.6%
Rat KMO; conc 0.03 μM, duplicates
  inhibition rate, Rat-KMO cell-free assay (Figure 1B source data): 81.294%
Rat KMO; conc 0.03 μM, duplicates, read-out: inhibition rate, Rat-KMO cell-free assay (Figure 1B source data)
  inhibition at 0.03 µM: 81.3%
Rat KMO; conc 0.1 μM, duplicates
  inhibition rate, Rat-KMO cell-free assay (Figure 1B source data): 84.395%
Rat KMO; conc 0.1 μM, duplicates, read-out: inhibition rate, Rat-KMO cell-free assay (Figure 1B source data)
  inhibition at 0.1 µM: 83.1%
Rat KMO; conc 0.3 μM, duplicates
  inhibition rate, Rat-KMO cell-free assay (Figure 1B source data): 91.102%
Rat KMO; conc 0.3 μM, duplicates, read-out: inhibition rate, Rat-KMO cell-free assay (Figure 1B source data)
  inhibition at 0.3 µM: 92.2%
Rat KMO; conc 1 μM, duplicates
  inhibition rate, Rat-KMO cell-free assay (Figure 1B source data): 84.342%
Rat KMO; conc 1 μM, duplicates, read-out: inhibition rate, Rat-KMO cell-free assay (Figure 1B source data)
  inhibition at 1 µM: 88.8%
hKMO; cell-free enzyme assay, high kynurenine, read-out: Human KMO IC50
  IC50: 3.8 nM
hKMO; conc 0.0003 μM, duplicates
  inhibition rate, Hs-KMO cell-free assay (Figure 1A source data): 2.492%
hKMO; conc 0.0003 μM, duplicates, read-out: inhibition rate, Hs-KMO cell-free assay (Figure 1A source data)
  inhibition at 0.0003 µM: 4.34%
hKMO; conc 0.001 μM, duplicates
  inhibition rate, Hs-KMO cell-free assay (Figure 1A source data): 10.698%
hKMO; conc 0.001 μM, duplicates, read-out: inhibition rate, Hs-KMO cell-free assay (Figure 1A source data)
  inhibition at 0.001 µM: 11%
hKMO; conc 0.003 μM, duplicates
  inhibition rate, Hs-KMO cell-free assay (Figure 1A source data): 34.671%
hKMO; conc 0.003 μM, duplicates, read-out: inhibition rate, Hs-KMO cell-free assay (Figure 1A source data)
  inhibition at 0.003 µM: 36%
hKMO; conc 0.01 μM, duplicates
  inhibition rate, Hs-KMO cell-free assay (Figure 1A source data): 91.745%
hKMO; conc 0.01 μM, duplicates, read-out: inhibition rate, Hs-KMO cell-free assay (Figure 1A source data)
  inhibition at 0.01 µM: 91.2%
hKMO; conc 0.03 μM, duplicates
  inhibition rate, Hs-KMO cell-free assay (Figure 1A source data): 101.827%
hKMO; conc 0.03 μM, duplicates, read-out: inhibition rate, Hs-KMO cell-free assay (Figure 1A source data)
  inhibition at 0.03 µM: 102%
hKMO; conc 0.1 μM, duplicates
  inhibition rate, Hs-KMO cell-free assay (Figure 1A source data): 97.991%
hKMO; conc 0.1 μM, duplicates, read-out: inhibition rate, Hs-KMO cell-free assay (Figure 1A source data)
  inhibition at 0.1 µM: 98.8%
hKMO; conc 0.3 μM, duplicates
  inhibition rate, Hs-KMO cell-free assay (Figure 1A source data): 101.967%
hKMO; conc 0.3 μM, duplicates, read-out: inhibition rate, Hs-KMO cell-free assay (Figure 1A source data)
  inhibition at 0.3 µM: 103%
hKMO; conc 1 μM, duplicates
  inhibition rate, Hs-KMO cell-free assay (Figure 1A source data): 95.974%
hKMO; conc 1 μM, duplicates, read-out: inhibition rate, Hs-KMO cell-free assay (Figure 1A source data)
  inhibition at 1 µM: 103%
[1]; HEK293, conc 0.3 μM, duplicates, read-out: inhibition rate, Rat-KMO cellular assay (Figure 1D source data)
  inhibition at 0.3 µM: 62%
[1]; HEK293, conc 1 μM, duplicates, read-out: inhibition rate, Rat-KMO cellular assay (Figure 1D source data)
  inhibition at 1 µM: 91.7%
[1]; HEK293, conc 3 μM, duplicates, read-out: inhibition rate, Rat-KMO cellular assay (Figure 1D source data)
  inhibition at 3 µM: 97.7%
[1]; HEK293, conc 10 μM, duplicates, read-out: inhibition rate, Rat-KMO cellular assay (Figure 1D source data)
  inhibition at 10 µM: 100%
[1]; HEK293, conc 30 μM, duplicates, read-out: inhibition rate, Rat-KMO cellular assay (Figure 1D source data)
  inhibition at 30 µM: 100%
[1]; HEK293 cells expressing rat KMO, LC/MS
  IC50: 240 nM
[1]; conc 0.3 μM, duplicates
  inhibition rate, Rat-KMO cellular assay (Figure 1D source data): 48.933%
[1]; conc 1 μM, duplicates
  inhibition rate, Rat-KMO cellular assay (Figure 1D source data): 83.933%
[1]; conc 3 μM, duplicates
  inhibition rate, Rat-KMO cellular assay (Figure 1D source data): 95.840%
[1]; conc 10 μM, duplicates
  inhibition rate, Rat-KMO cellular assay (Figure 1D source data): 99.692%
[1]; conc 30 μM, duplicates
  inhibition rate, Rat-KMO cellular assay (Figure 1D source data): 100.882%
[2]; HEK293, conc 0.0003 μM, duplicates, read-out: inhibition rate, Hs-KMO cellular assay (Figure 1C source data)
  inhibition at 0.0003 µM: 6.79%
[2]; HEK293, conc 0.001 μM, duplicates, read-out: inhibition rate, Hs-KMO cellular assay (Figure 1C source data)
  inhibition at 0.001 µM: 11%
[2]; HEK293, conc 0.003 μM, duplicates, read-out: inhibition rate, Hs-KMO cellular assay (Figure 1C source data)
  inhibition at 0.003 µM: 12.3%
[2]; HEK293, conc 0.01 μM, duplicates, read-out: inhibition rate, Hs-KMO cellular assay (Figure 1C source data)
  inhibition at 0.01 µM: 32.5%
[2]; HEK293, conc 0.03 μM, duplicates, read-out: inhibition rate, Hs-KMO cellular assay (Figure 1C source data)
  inhibition at 0.03 µM: 100%
[2]; HEK293, conc 0.1 μM, duplicates, read-out: inhibition rate, Hs-KMO cellular assay (Figure 1C source data)
  inhibition at 0.1 µM: 104%
[2]; HEK293, conc 0.3 μM, duplicates, read-out: inhibition rate, Hs-KMO cellular assay (Figure 1C source data)
  inhibition at 0.3 µM: 105%
[2]; HEK293 cells expressing human KMO, LC/MS, read-out: Human cell-based assay IC50
  IC50: 12 nM
[2]; conc 0.0003 μM, duplicates
  inhibition rate, Hs-KMO cellular assay (Figure 1C source data): 4.270%
[2]; conc 0.001 μM, duplicates
  inhibition rate, Hs-KMO cellular assay (Figure 1C source data): 10.835%
[2]; conc 0.003 μM, duplicates
  inhibition rate, Hs-KMO cellular assay (Figure 1C source data): 13.039%
[2]; conc 0.01 μM, duplicates
  inhibition rate, Hs-KMO cellular assay (Figure 1C source data): 26.636%
[2]; conc 0.03 μM, duplicates
  inhibition rate, Hs-KMO cellular assay (Figure 1C source data): 98.487%
[2]; conc 0.1 μM, duplicates
  inhibition rate, Hs-KMO cellular assay (Figure 1C source data): 104.397%

— article PMC7862291, “Full-length in meso structure and mechanism of rat kynurenine 3-monooxygenase inhibition” (Communications Biology, 2021)
